The assay deals with T1, human TLR8 (Homo sapiens, UniProt Q9NR97).
T1 sequence (Q9NR97 27-1041): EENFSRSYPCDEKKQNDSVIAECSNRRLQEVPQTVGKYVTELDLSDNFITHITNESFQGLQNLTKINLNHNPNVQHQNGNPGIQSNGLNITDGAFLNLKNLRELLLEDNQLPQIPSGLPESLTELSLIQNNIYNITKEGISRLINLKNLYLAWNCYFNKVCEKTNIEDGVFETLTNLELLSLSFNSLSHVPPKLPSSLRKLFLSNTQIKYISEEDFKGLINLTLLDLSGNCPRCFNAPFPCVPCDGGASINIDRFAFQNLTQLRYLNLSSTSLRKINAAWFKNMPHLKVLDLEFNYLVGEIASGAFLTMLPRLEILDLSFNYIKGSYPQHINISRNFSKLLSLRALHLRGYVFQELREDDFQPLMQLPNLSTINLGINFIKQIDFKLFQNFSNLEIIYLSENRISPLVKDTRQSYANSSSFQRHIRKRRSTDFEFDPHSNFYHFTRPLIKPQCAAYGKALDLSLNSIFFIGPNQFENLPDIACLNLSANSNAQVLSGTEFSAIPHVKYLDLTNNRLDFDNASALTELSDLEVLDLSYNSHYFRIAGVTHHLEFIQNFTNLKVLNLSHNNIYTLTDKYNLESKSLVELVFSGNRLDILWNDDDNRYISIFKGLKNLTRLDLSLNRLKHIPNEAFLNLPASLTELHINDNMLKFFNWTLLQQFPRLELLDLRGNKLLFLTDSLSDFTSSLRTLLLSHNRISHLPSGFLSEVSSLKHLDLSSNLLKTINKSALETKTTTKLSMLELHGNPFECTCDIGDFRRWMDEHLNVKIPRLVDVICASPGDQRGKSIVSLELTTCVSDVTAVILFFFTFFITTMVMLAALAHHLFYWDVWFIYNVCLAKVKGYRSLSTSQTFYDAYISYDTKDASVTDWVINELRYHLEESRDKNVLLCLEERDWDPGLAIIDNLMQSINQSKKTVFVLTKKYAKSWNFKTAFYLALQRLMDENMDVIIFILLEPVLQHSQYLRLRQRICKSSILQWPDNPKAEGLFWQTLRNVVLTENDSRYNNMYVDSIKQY
As to the kind of experiment: HEK293-Blue-hTLR-8 cells assay (SEAP reporter, R848 stimulation). In kind it is cell-based. The conditions noted are these: HEK293-Blue-hTLR8 cells, R848, 20 hrs; 0.003 is the lowest tested concentration; read-out: HEK/hTLR8 IC50. The method, then:
The following tests were carried out in order to determine the activity of the compounds of formula (I) or (Ia) in HEK293-Blue-hTLR-7/8/9 cells assay.
HEK293-Blue-hTLR-8 cells assay:
A stable HEK293-Blue-hTLR-8 cell line was purchased from InvivoGen (Cat.#: hkb-htlr8, San Diego, California, USA). These cells were originally designed for studying the stimulation of human TLR8 by monitoring the activation of NF-κB. A SEAP (secreted embryonic alkaline phosphatase) reporter gene was placed under the control of the IFN-β minimal promoter fused to five NF-κB and AP-1-binding sites. The SEAP was induced by activating NF-κB and AP-1 via stimulating HEK-Blue hTLR8 cells with TLR8 ligands. Therefore the reporter expression was declined by TLR8 antagonist under the stimulation of a ligand, such as R848, for incubation of 20 hrs. The cell culture supernatant SEAP reporter activity was determined using QUANTI-Blue™ kit (Cat.#: rep-qb1, Invivogen, San Diego, Ca, USA) at a wavelength of 640 nm, a detection medium that turns purple or blue in the presence of alkaline phosphatase.
HEK293-Blue-hTLR8 cells were incubated at a density of 250,000∼450,000 cells/mL in a volume of 170 µL in a 96-well plate in Dulbecco's Modified Eagle's medium (DMEM) containing 4.5 g/L glucose, 50 U/mL penicillin, […], […], 2 mM L-glutamine, 10% (v/v) heat-inactivated fetal bovine serum with addition of 20 µL test compound in a serial dilution in the presence of final DMSO at 1% and 10 µL of 60uM R848 in above DMEM, perform incubation under 37 °C in a CO2 incubator for 20 hrs. Then 20 µL of the supernatant from each well was incubated with 180 µL Quanti-blue substrate solution at 37°C for 2 hrs and the absorbance was read at 620∼655 nm using a spectrophotometer. The signalling pathway that TLR8 activation leads to downstream NF-κB activation has been widely accepted, and therefore similar reporter assay was modified for evaluating TLR8 antagonist.
In the case of `C[C@@H]1CN(c2ccc(C#N)n3nccc23)C[C@H](CN2CCc3cc(N4CCN(C)CC4)ccc3C2)O1` [Example 15, 4-[(2R,6S)-2-methyl-6-[[6-(4-methylpiperazin-1-yl)-3,4-dihydro-1H-isoquinolin-2-yl]methyl]morpholin-4-yl]pyrazolo[1,5-a]pyridine-7-carbonitrile], the IC50 came out at 21 nM.

As to `C[C@@H]1CN(c2ccc(C#N)n3nccc23)C[C@H](CNCc2ccc(N3CCNCC3)cc2)O1` [Example 16, 4-[(2R,6S)-2-methyl-6-[[(4-piperazin-1-ylphenyl)methylamino]methyl]morpholin-4-yl]pyrazolo[1,5-a]pyridine-7-carbonitrile], the IC50 came to 16 nM.

As for `C[C@@H]1CN(c2ccc(C#N)n3nccc23)C[C@H](CN2Cc3ccc(N4CCN(C)CC4)cc3C2)O1` [Example 17, 4-[(2R,6S)-2-methyl-6-[[5-(4-methylpiperazin-1-yl)isoindolin-2-yl]methyl]morpholin-4-yl]pyrazolo[1,5-a]pyridine-7-carbonitrile], the IC50 worked out at 52 nM.

As to `C[C@@H]1CN(c2ccc(C#N)n3nccc23)C[C@H](CN2Cc3cc(N4CCNCC4)cnc3C2)O1` [Example 18, 4-[(2R,6S)-2-methyl-6-[(3-piperazin-1-yl-5,7-dihydropyrrolo[3,4-b]pyridin-6-yl)methyl]morpholin-4-yl]pyrazolo[1,5-a]pyridine-7-carbonitrile], the IC50 was determined as 31 nM.

As to `C[C@@H]1CN(c2ccc(C#N)c3ncccc23)C[C@H](CN2CCc3cc(N4CCNCC4)ccc3C2)O1` [Example 19, 5-[(2R,6S)-2-methyl-6-[(6-piperazin-1-yl-3,4-dihydro-1H-isoquinolin-2-yl)methyl]morpholin-4-yl]quinoline-8-carbonitrile], the IC50 turned out to be 6 nM.

As to `C[C@@H]1CN(c2ccc(C#N)c3ncccc23)C[C@H](CN2Cc3cc(N4CCNCC4)cnc3C2)O1` [Example 20, 5-[(2R,6S)-2-methyl-6-[(3-piperazin-1-yl-5,7-dihydropyrrolo[3,4-b]pyridin-6-yl)methyl]morpholin-4-yl]quinoline-8-carbonitrile], the IC50 came to 4 nM.

With `C[C@@H]1CN(c2ccc(C#N)c3ncccc23)C[C@H](CN2Cc3ccc(N4CCNCC4)cc3C2)O1` [Example 21, 5-[(2R,6S)-2-methyl-6-[(5-piperazin-1-ylisoindolin-2-yl)methyl]morpholin-4-yl]quinoline-8-carbonitrile], the IC50 was found to be 5 nM.

In the case of `C[C@@H]1CN(c2ccc(C#N)c3ncsc23)C[C@H](CN2Cc3ccc(N4CCNCC4)cc3C2)O1` [Example 23, 7-[(2R,6S)-2-methyl-6-[(5-piperazin-1-ylisoindolin-2-yl)methyl]morpholin-4-yl]-1,3-benzothiazole-4-carbonitrile], the IC50 is less than 3 nM.

`C[C@@H]1CN(c2ccc(C#N)c3ncsc23)C[C@H](CN2CCc3cc(N4CCNCC4)ccc3C2)O1` [Example 24, 7-[(2R,6S)-2-methyl-6-[(6-piperazin-1-yl-3,4-dihydro-1H-isoquinolin-2-yl)methyl]morpholin-4-yl]-1,3-benzothiazole-4-carbonitrile]: the IC50 was 4 nM.

Regarding `C[C@@H]1CN(c2ccc(C#N)c3ncsc23)C[C@H](CN2Cc3cc(N4CCNCC4)cnc3C2)O1` [Example 25, 7-[(2R,6S)-2-methyl-6-[(3-piperazin-1-yl-5,7-dihydropyrrolo[3,4-b]pyridin-6-yl)methyl]morpholin-4-yl]-1,3-benzothiazole-4-carbonitrile], the IC50 is less than 3 nM.

Take `C[C@@H]1CN(c2ccc(C#N)n3nccc23)C[C@H](CN2Cc3ccc(OCCN(C)C)cc3C2)O1` [Example 28, 4-[(2S,6R)-2-[[5-[2-(dimethylamino)ethoxy]isoindolin-2-yl]methyl]-6-methyl-morpholin-4-yl]pyrazolo[1,5-a]pyridine-7-carbonitrile]: the IC50 stood at 58 nM.

Take `C[C@@H]1CN(c2ccc(C#N)n3ncc(F)c23)C[C@H](CN2Cc3cc(N4CCNCC4)cnc3C2)O1` [Example 29, 3-fluoro-4-[(2R,6S)-2-methyl-6-[(3-piperazin-1-yl-5,7-dihydropyrrolo[3,4-b]pyridin-6-yl)methyl]morpholin-4-yl]pyrazolo[1,5-a]pyridine-7-carbonitrile]: the IC50 was determined as 14 nM.

Turning to `C[C@@H]1CN(c2ccc(C#N)c3nccnc23)C[C@H](CN2Cc3cc(N4CCNCC4)cnc3C2)O1` [Example 30, 8-[(2R,6S)-2-methyl-6-[(3-piperazin-1-yl-5,7-dihydropyrrolo[3,4-b]pyridin-6-yl)methyl]morpholin-4-yl]quinoxaline-5-carbonitrile], the IC50 turned out to be 3 nM.

As to `C[C@@H]1CN(c2ccc(Cl)c3ncccc23)C[C@H](CN2Cc3ccc(N4CCNCC4)cc3C2)O1` [Example 31, (2R,6S)-4-(8-chloro-5-quinolyl)-2-methyl-6-[(5-piperazin-1-ylisoindolin-2-yl)methyl]morpholine], the IC50 was determined as 13 nM.

As to `C[C@@H]1CN(c2ccc(Cl)c3ncccc23)C[C@H](CN2CCc3cc(N4CCNCC4)ccc3C2)O1` [Example 32, (2R,6S)-4-(8-chloro-5-quinolyl)-2-methyl-6-[(6-piperazin-1-yl-3,4-dihydro-1H-isoquinolin-2-yl)methyl]morpholine], the IC50 was 17 nM.

Turning to `C[C@@H]1CN(c2ccc(Cl)c3nccnc23)C[C@H](CN2Cc3ccc(N4CCNCC4)cc3C2)O1` [Example 33, (2R,6S)-4-(8-chloroquinoxalin-5-yl)-2-methyl-6-[(5-piperazin-1-ylisoindolin-2-yl)methyl]morpholine], the IC50 came to 5 nM.

In the case of `C[C@@H]1CN(c2ccc(Cl)c3nccnc23)C[C@H](CN2CCc3cc(N4CCNCC4)ccc3C2)O1` [Example 34, (2R,6S)-4-(8-chloroquinoxalin-5-yl)-2-methyl-6-[(6-piperazin-1-yl-3,4-dihydro-1H-isoquinolin-2-yl)methyl]morpholine], the IC50 came to 5 nM.

For `C[C@@H]1CN(c2ccc(C#N)c3nccnc23)C[C@H](CN2Cc3ccc(N4CCN(C5CC5)CC4)cc3C2)O1` [Example 35, 8-[(2S,6R)-2-[[5-(4-cyclopropylpiperazin-1-yl)isoindolin-2-yl]methyl]-6-methyl-morpholin-4-yl]quinoxaline-5-carbonitrile], the IC50 came out at 9 nM.

As to `CC1CN(c2ccc3c(c2)CN(C[C@H]2CN(c4ccc(C#N)c5nccnc45)C[C@@H](C)O2)C3)CCN1` (stereo partly drawn) [Example 36, 8-[(2R,6S)-2-methyl-6-[[5-(3-methylpiperazin-1-yl)isoindolin-2-yl]methyl]morpholin-4-yl]quinoxaline-5-carbonitrile], the IC50 is less than 3 nM.

In the case of `COCCN1CCN(c2ccc3c(c2)CN(C[C@H]2CN(c4ccc(C#N)c5nccnc45)C[C@@H](C)O2)C3)CC1` [Example 37, 8-[(2S,6R)-2-[[5-[4-(2-methoxyethyl)piperazin-1-yl]isoindolin-2-yl]methyl]-6-methyl-morpholin-4-yl]quinoxaline-5-carbonitrile], the IC50 worked out at 9 nM.

For `C[C@@H]1CN(c2ccc(C#N)c3nccnc23)C[C@H](CN2Cc3ccc(N4CCNC5(CC5)C4)cc3C2)O1` [Example 38, 8-[(2S,6R)-2-[[5-(4,7-diazaspiro[2.5]octan-7-yl)isoindolin-2-yl]methyl]-6-methyl-morpholin-4-yl]quinoxaline-5-carbonitrile], the IC50 was found to be 5 nM.

For the origin of these results see patent EP3623369A1, “NOVEL MORPHOLINYL AMINE COMPOUNDS FOR THE TREATMENT OF AUTOIMMUNE DISEASE” (F. Hoffmann-La Roche AG, priority 2018, dated 2020).
